Data from patent publication US11987586B1 (TAKEDA PHARMACEUTICAL COMPANY LIMITED, priority 2022, dated 2024).

Target: T1, human OX2 receptor (Homo sapiens, UniProt O43614)
T1 construct: expressed in transfected cells
T1 sequence (O43614 1-444): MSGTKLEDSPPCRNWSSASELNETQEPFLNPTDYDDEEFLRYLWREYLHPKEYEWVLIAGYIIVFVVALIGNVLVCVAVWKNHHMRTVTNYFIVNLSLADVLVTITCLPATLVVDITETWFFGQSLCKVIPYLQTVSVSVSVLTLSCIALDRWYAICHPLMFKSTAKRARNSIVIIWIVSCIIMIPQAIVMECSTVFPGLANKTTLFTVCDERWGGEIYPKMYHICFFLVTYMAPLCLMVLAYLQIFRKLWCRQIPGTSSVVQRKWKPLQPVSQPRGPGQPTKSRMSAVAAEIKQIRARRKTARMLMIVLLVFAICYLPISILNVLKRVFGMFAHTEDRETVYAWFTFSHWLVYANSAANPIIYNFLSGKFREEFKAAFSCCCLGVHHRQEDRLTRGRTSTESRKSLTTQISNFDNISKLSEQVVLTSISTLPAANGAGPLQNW
Test: Measurement of orexin type 2 receptor agonist activity (calcium fluorescence, Fluo-4, FDSS)
Format: cell-based
Settings: 3 uM test compound; CHO cells expressing human OX2 receptor; DMSO = 0%, 10 nM orexin A (human) = 100%
Outline: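 Agonist activity (%) was normalised to the response to 10 nM final human orexin A (100%) and to the DMSO vehicle (0%). The response was measured as the Fluo-4 calcium signal, read kinetically over 1 min 40 s after compound addition to Fluo-4/probenecid-loaded stable CHO-K1 clones expressing human OX2 (aa 1-444).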

OX2R agonist activity (3 uM, %)	Structure (SMILES)
107%	CCS(=O)(=O)N[C@@H]1CN2C(=O)N(c3noc4cc(COC)cc(-c5c(F)cc(F)cc5F)c34)CC[C@@H]2C1(F)F [Example 232, N-{(4aR,6R)-5,5-difluoro-2-[6-(methoxymethyl)-4-(2,4,6-trifluorophenyl)-1,2-benzoxazol-3-yl]-1-oxooctahydropyrrolo[1,2-c]pyrimidin-6-yl}ethanesulfonamide]
109%	Cc1cc2onc(N3CC[C@H]4N(C[C@@H](NS(=O)(=O)C5CC5)C4(F)F)C3=O)c2c(-c2c(F)cc(F)cc2F)n1 [Example 233, N-{(4aR,6R)-5,5-difluoro-2-[6-methyl-4-(2,4,6-trifluorophenyl)[1,2]oxazolo[4,5-c]pyridin-3-yl]-1-oxooctahydropyrrolo[1,2-c]pyrimidin-6-yl}cyclopropanesulfonamide]
113%	CCS(=O)(=O)N[C@@H]1CN2C(=O)N(c3noc4nccc(-c5c(F)cc(F)cc5F)c34)CC[C@@H]2C1(F)F [Example 235, N-{(4aR,6R)-5,5-difluoro-1-oxo-2-[4-(2,4,6-trifluorophenyl)[1,2]oxazolo[5,4-b]pyridin-3-yl]octahydropyrrolo[1,2-c]pyrimidin-6-yl}ethanesulfonamide]
105%	O=C1N(c2noc3cccc(-c4c(F)cc(F)cc4F)c23)CC[C@H]2N1C[C@@H](NS(=O)(=O)C1CC1)C2(F)F [Example 242, N-{(4aR,6R)-5,5-Difluoro-1-oxo-2-[4-(2,4,6-trifluorophenyl)-1,2-benzoxazol-3-yl]octahydropyrrolo[1,2-c]pyrimidin-6-yl}cyclopropanesulfonamide]
89%	COCc1cc2onc(-n3cc4n(c3=O)C[C@@H](NS(C)(=O)=O)C4(F)F)c2c(-c2c(F)cc(F)cc2F)c1F [Example 244, N-{(6R)-7,7-difluoro-2-[5-fluoro-6-(methoxymethyl)-4-(2,4,6-trifluorophenyl)-1,2-benzoxazol-3-yl]-3-oxo-2,5,6,7-tetrahydro-3H-pyrrolo[1,2-c]imidazol-6-yl}methanesulfonamide]
109%	CS(=O)(=O)N[C@H]1C[C@H]2CCN(c3noc4cc(C(F)(F)F)cc(-c5c(F)cccc5F)c34)C(=O)N2C1 [Example 251, N-{(4aR,6S)-2-[4-(2,6-difluorophenyl)-6-(trifluoromethyl)-1,2-benzoxazol-3-yl]-1-oxooctahydropyrrolo[1,2-c]pyrimidin-6-yl}methanesulfonamide]
110%	CNS(=O)(=O)N[C@@H]1Cn2c(cn(-c3noc4cc(C)nc(-c5c(F)cc(F)cc5F)c34)c2=O)C1(F)F [Example 257, N-{(6R)-7,7-difluoro-2-[6-methyl-4-(2,4,6-trifluorophenyl)[1,2]oxazolo[4,5-c]pyridin-3-yl]-3-oxo-2,5,6,7-tetrahydro-3H-pyrrolo[1,2-c]imidazol-6-yl}-N′-methylsulfuric diamide]

The next lines start with the compound.

Structure (SMILES)	OX2R agonist activity (3 uM, %)
O=C1N(c2noc3ccc(F)c(-c4c(F)cc(F)cc4F)c23)CC[C@H]2N1C[C@@H](NS(=O)(=O)C1CC1)C2(F)F [Example 234, N-{(4aR,6R)-5,5-difluoro-2-[5-fluoro-4-(2,4,6-trifluorophenyl)-1,2-benzoxazol-3-yl]-1-oxooctahydropyrrolo[1,2-c]pyrimidin-6-yl}cyclopropanesulfonamide]	111%
O=C1N(c2noc3cc(F)cc(-c4c(F)cc(F)cc4F)c23)CC[C@H]2N1C[C@@H](NS(=O)(=O)CF)C2(F)F [Example 236, N-{(4aR,6R)-5,5-difluoro-2-[6-fluoro-4-(2,4,6-trifluorophenyl)-1,2-benzoxazol-3-yl]-1-oxooctahydropyrrolo[1,2-c]pyrimidin-6-yl}-1-fluoromethanesulfonamide]	108%
CS(=O)(=O)N[C@@H]1CN2C(=O)N(c3noc4nccc(-c5c(F)cc(F)cc5F)c34)CC[C@@H]2C1(F)F [Example 237, N-{(4aR,6R)-5,5-difluoro-1-oxo-2-[4-(2,4,6-trifluorophenyl)[1,2]oxazolo[5,4-b]pyridin-3-yl]octahydropyrrolo[1,2-c]pyrimidin-6-yl}methanesulfonamide]	110%
COCc1cc2onc(N3CC[C@H]4N(C[C@@H](NS(C)(=O)=O)C4(F)F)C3=O)c2c(-c2c(F)cccc2F)c1F [Example 238, N-{(4aR,6R)-2-[4-(2,6-difluorophenyl)-5-fluoro-6-(methoxymethyl)-1,2-benzoxazol-3-yl]-5,5-difluoro-1-oxooctahydropyrrolo[1,2-c]pyrimidin-6-yl}methanesulfonamide]	106%
CCS(=O)(=O)N[C@@H]1Cn2c(cn(-c3noc4cc(COC)c(F)c(-c5c(F)cc(F)cc5F)c34)c2=O)C1(F)F [Example 239, N-{(6R)-7,7-difluoro-2-[5-fluoro-6-(methoxymethyl)-4-(2,4,6-trifluorophenyl)-1,2-benzoxazol-3-yl]-3-oxo-2,5,6,7-tetrahydro-3H-pyrrolo[1,2-c]imidazol-6-yl}ethanesulfonamide]	95%
CS(=O)(=O)N[C@@H]1CN2C(=O)N(c3noc4ccc(F)c(-c5c(F)cc(F)cc5F)c34)CC[C@@H]2C1(F)F [Example 241, N-{(4aR,6R)-5,5-difluoro-2-[5-fluoro-4-(2,4,6-trifluorophenyl)-1,2-benzoxazol-3-yl]-1-oxooctahydropyrrolo[1,2-c]pyrimidin-6-yl}methanesulfonamide]	100%
CCS(=O)(=O)N[C@@H]1CN2C(=O)N(c3noc4cc(F)cc(-c5c(F)cccc5F)c34)CC[C@@H]2C1(F)F [Example 247, N-{(4aR,6R)-2-[4-(2,6-difluorophenyl)-6-fluoro-1,2-benzoxazol-3-yl]-5,5-difluoro-1-oxooctahydropyrrolo[1,2-c]pyrimidin-6-yl}ethanesulfonamide]	101%
Cc1cc2onc(N3CC[C@H]4N(C[C@@H](NS(C)(=O)=O)C4(F)F)C3=O)c2c(-c2c(F)cc(F)cc2F)n1 [Example 248, N-{(4aR,6R)-5,5-difluoro-2-[6-methyl-4-(2,4,6-trifluorophenyl)[1,2]oxazolo[4,5-c]pyridin-3-yl]-1-oxooctahydropyrrolo[1,2-c]pyrimidin-6-yl}methanesulfonamide]	107%
CCOc1cc(-c2c(F)cc(F)cc2F)c2c(N3CC[C@H]4N(C[C@@H](NS(=O)(=O)C5CC5)C4(F)F)C3=O)noc2c1 [Example 249, N-{(4aR,6R)-2-[6-ethoxy-4-(2,4,6-trifluorophenyl)-1,2-benzoxazol-3-yl]-5,5-difluoro-1-oxooctahydropyrrolo[1,2-c]pyrimidin-6-yl}cyclopropanesulfonamide]	102%
COc1cc(-c2c(F)cc(F)cc2F)c2c(-n3cc4n(c3=O)C[C@@H](NS(C)(=O)=O)C4(F)F)noc2n1 [Example 250, N-{(6R)-7,7-difluoro-2-[6-methoxy-4-(2,4,6-trifluorophenyl)[1,2]oxazolo[5,4-b]pyridin-3-yl]-3-oxo-2,5,6,7-tetrahydro-3H-pyrrolo[1,2-c]imidazol-6-yl}methanesulfonamide]	99%
CS(=O)(=O)N[C@@H]1CN2C(=O)N(c3noc4cc(F)c(F)c(-c5c(F)cccc5F)c34)CC[C@@H]2C1(F)F [Example 252, N-{(4aR,6R)-2-[4-(2,6-difluorophenyl)-5,6-difluoro-1,2-benzoxazol-3-yl]-5,5-difluoro-1-oxooctahydropyrrolo[1,2-c]pyrimidin-6-yl}methanesulfonamide]	96%
CS(=O)(=O)N[C@H]1C[C@H]2CCN(c3noc4cc(F)cc(-c5c(F)cccc5F)c34)C(=O)N2C1 [Example 253, N-{(4aR,6S)-2-[4-(2,6-difluorophenyl)-6-fluoro-1,2-benzoxazol-3-yl]-1-oxooctahydropyrrolo[1,2-c]pyrimidin-6-yl}methanesulfonamide]	101%
CCS(=O)(=O)N[C@@H]1CN2C(=O)N(c3noc4cc(F)cc(-c5ncc(F)cc5F)c34)CC[C@@H]2C1(F)F [Example 254, N-{(4aR,6R)-2-[4-(3,5-difluoropyridin-2-yl)-6-fluoro-1,2-benzoxazol-3-yl]-5,5-difluoro-1-oxooctahydropyrrolo[1,2-c]pyrimidin-6-yl}ethanesulfonamide]	95%
CCS(=O)(=O)N[C@@H]1CN2C(=O)N(c3noc4cc(OC(F)F)cc(-c5c(F)cccc5F)c34)CC[C@@H]2C1(F)F [Example 255, N-{(4aR,6R)-2-[6-(difluoromethoxy)-4-(2,6-difluorophenyl)-1,2-benzoxazol-3-yl]-5,5-difluoro-1-oxooctahydropyrrolo[1,2-c]pyrimidin-6-yl}ethanesulfonamide]	107%
O=C1N(c2noc3cc(OC(F)F)cc(-c4c(F)cccc4F)c23)CC[C@H]2N1C[C@@H](NS(=O)(=O)C1CC1)C2(F)F [Example 256, N-{(4aR,6R)-2-[6-(difluoromethoxy)-4-(2,6-difluorophenyl)-1,2-benzoxazol-3-yl]-5,5-difluoro-1-oxooctahydropyrrolo[1,2-c]pyrimidin-6-yl}cyclopropanesulfonamide]	103%
